Measurements from US20240374739A1, “BILE ACID CONJUGATE” (Curtin University, priority 2021, published 2024).

Key:
[1] = test system: Neurodegenerated cells (Alzheimer's disease model); assay: ROS (reactive oxygen species) assay, Alzheimer's disease model; assay type: cell-based, human; conditions: AD model
Method: (§1) Perinatal tissue derived human stem cell model for Alzheimer's disease (AD) was prepared using proprietary protocols to test the effect of new drug entities. Drug treatment was for 24 h in all the assays.
(§2) Increase in oxidative stress is associated with accumulation of amyloid beta seen in the AD model. Increased oxidative stress and nitric oxide levels lead to apoptosis and evoke cytotoxic effects on neurons.

[2] = test system: Neurodegenerated cells (Alzheimer's disease model); assay: Gene expression analysis by qRT-PCR for neuronal, cholinergic and AD associated markers; assay type: cell-based, human; conditions: 24 h drug treatment
Method: as §1
For determining the expression of genes involved in AD specific neurodegeneration and neuronal markers, we analysed BACE and chAT (AD and cholinergic markers) and synapsin 1 and neuropilin (neuronal markers).

[3] = test system: Neurodegenerated cells (Parkinson's disease model); assay: Gene expression analysis by qRT-PCR for neuronal, dopaminergic and PD associated markers; assay type: cell-based, human; conditions: 24 hours drug treatment
Method: (§3) Perinatal tissue derived human stem cell model for Parkinson's disease (PD) was prepared using proprietary protocols to test the effect of new drug entities. Drug treatment was for 24 hours in all the assays.
Gene expression levels of mature neuronal marker (Synapsin I), dopaminergic markers (Nuclear receptor related 1 (Nurr1), Dopamine transporter (DAT) and Tyrosine hydroxylase (TH)), and PD associated marker (α-synuclein) were analysed to determine the effect of probucol, SPQ, HA-1 and L-Dopa.
(A) Synapsin I, (B) Nurr1, (C) DAT, (D) TH and (E) α-synuclein. (p<0.05; *p<0.05, **p<0.001, ***p<0.0001, n=3).

[4] = test system: Neurodegenerated cells (Alzheimer's disease model); assay: Immunocytochemical localization of AD specific and neuronal markers; assay type: cell-based, human; conditions: fluorescence micrographs
Method: as §1
For further confirmation and protein localization of the AD specific neurodegenerative markers and neuronal markers, we performed immunolocalization for BACE1 and synapsin respectively.
Fluorescence micrographs of BACE1 positive neuronal cells were obtained and the effects of probucol, SPQ and HA-1 on neurodegeneration model were compared. […] In the AD model, as expected BACE1 accumulation is clearly pronounced.
In the case of synapsin 1, a disruption in expression of synapsin protein in ND cells was observed.

[5] = target: T1, Acetylcholinesterase (AChE) (Homo sapiens, UniProt P22303); assay: Acetylcholinesterase (AChE) activity, Amplex Red reagent-based assay, Alzheimer's disease model; assay type: cell-based; conditions: probucol 20 μM, SPQ 10 μM, HA-1 10 μM, rivastigmine 2 μM, 24 hours
T1 construct: We assayed for AChE activity and ACh release in control, neurodegenerated AD and drug treated AD cells; endogenous in cells; host or cells: neurodegenerated cells of a human stem cell AD model derived from perinatal tissue (amniotic membrane mesenchymal stem cells are named for the MTT assay)
Method: as §1
Acetylcholinesterase (AChE) that regulates hydrolysis of acetylcholine (ACh) in the brain, is an important target for treatment of Alzheimer's disease (AD), a feature of which is ACh deficiency. We assayed for AChE activity and ACh release in control, neurodegenerated AD and drug treated AD cells.

[6] = test system: Neurodegenerated cells (Alzheimer's disease model); assay: Glutathione peroxidase / GSH activity, Alzheimer's disease model; assay type: cell-based, human; conditions: AD model; vs neurodegeneration
Method: as §1
Alzheimer's disease-related increase in oxidative stress is associated with decrease in the levels of brain antioxidant glutathione (GSH).
(Statistical analysis: results are expressed in mean±SD. One-way ANOVA followed by Dunnett's post hoc test was performed to compare all columns vs neurodegeneration (p<0.05; *p<0.05, **p<0.001, ***p<0.0001, ns=non-significant, n=3).)

[7] = test system: Neurodegenerated cells (Parkinson's disease model); assay: Greiss (nitric oxide) assay, Parkinson's disease model; assay type: cell-based, human; conditions: PD model
Method: as §3
(§4) Increase in oxidative stress associated with accumulation of α-synuclein plays a central role in disease progression. Nitric oxide enhances the aggregation of α-synuclein and accelerates disease progression. Increased oxidative stress and nitric oxide levels lead to apoptosis and evoke cytotoxic effects on neurons.

[8] = test system: Neurodegenerated cells (Parkinson's disease model); assay: Immunocytochemical localization of PD specific and neuronal markers; assay type: cell-based, human; conditions: fluorescence micrographs
Method: as §3
For further confirmation and protein localization of neuronal, dopaminergic and PD specific neurodegenerative markers, we performed immunolocalization for synapsin I, Nurr1, TH and α-synuclein respectively.
Fluorescence micrographs of synapsin 1 positive neuronal cells were obtained and the effects of probucol, SPQ and HA-1 on neurodegeneration model with L-Dopa as positive control were compared.
Fluorescence micrographs of Nurr1 positive dopaminergic neuronal cells were obtained and the effects of probucol, SPQ and HA-1 on neurodegeneration model with L-Dopa as positive control were compared.
Fluorescence micrographs of TH positive dopaminergic neuronal cells were obtained and the effects of probucol, SPQ and HA-1 on neurodegeneration model with L-Dopa as positive control were compared.
Fluorescence micrographs of α-synuclein immunolocalization were obtained and the effects of probucol, SPQ and HA-1 on neurodegeneration model with L-Dopa as positive control were compared.

[9] = test system: Neurodegenerated cells (Parkinson's disease model); assay: Glutathione peroxidase / GSH activity, Parkinson's disease model; assay type: cell-based, human; conditions: PD model; vs neurodegeneration
Method: as §3
Parkinson's disease-related increase in oxidative stress is associated with mitochondrial dysfunction and subsequent decrease in the levels of brain antioxidant glutathione (GSH).
(Statistical analysis: Results are expressed in mean±SD. One-way ANOVA followed by Dunnett's post hoc test was performed to compare all columns vs neurodegeneration (p<0.05; *p<0.05, **p<0.001, ***p<0.0001, ns=non-significant, n=3).)

[10] = test system: Neurodegenerated cells (Alzheimer's disease model); assay: Mitochondrial membrane potential by TMRE assay, Alzheimer's disease model; assay type: cell-based, human; conditions: AD model; probucol 20 μM, SPQ 10 μM, HA-1 10 μM, rivastigmine 2 μM, 24 hours
Method: as §1
Aβ plaques are sources of toxicity that lead to severe structural and functional abnormalities in mitochondria in Alzheimer's disease. For assessing the changes in the electrophysiology and functional changes in the mitochondrial membrane potential, we used TMRE (tetramethylrhodamine ethyl ester) for quantifying changes in mitochondrial membrane potential in live cells by fluorimetry.

[11] = test system: Neurodegenerated cells (Alzheimer's disease model); assay: Greiss (nitric oxide) assay, Alzheimer's disease model; assay type: cell-based, human; conditions: AD model
Method: as §1, §2

[12] = test system: Neurodegenerated cells (Parkinson's disease model); assay: ROS assay, Parkinson's disease model; assay type: cell-based, human; conditions: PD model
Method: as §3, §4

T1 sequence (P22303 32-614): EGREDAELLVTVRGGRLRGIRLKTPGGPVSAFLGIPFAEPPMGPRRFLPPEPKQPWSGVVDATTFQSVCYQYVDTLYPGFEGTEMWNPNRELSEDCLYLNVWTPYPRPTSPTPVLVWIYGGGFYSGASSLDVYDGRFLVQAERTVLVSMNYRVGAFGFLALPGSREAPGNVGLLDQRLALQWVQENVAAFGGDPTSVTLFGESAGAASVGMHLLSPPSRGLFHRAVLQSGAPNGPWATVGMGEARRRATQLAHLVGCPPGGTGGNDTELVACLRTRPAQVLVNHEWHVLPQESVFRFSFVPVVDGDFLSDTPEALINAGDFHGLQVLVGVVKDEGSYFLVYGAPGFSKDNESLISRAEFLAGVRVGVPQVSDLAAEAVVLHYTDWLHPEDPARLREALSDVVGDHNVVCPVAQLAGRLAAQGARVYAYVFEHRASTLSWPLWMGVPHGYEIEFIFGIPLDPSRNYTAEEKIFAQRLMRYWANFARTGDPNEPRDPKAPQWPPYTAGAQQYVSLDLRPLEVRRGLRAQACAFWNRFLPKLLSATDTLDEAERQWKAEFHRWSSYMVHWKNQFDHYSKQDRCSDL

CC(C)(Sc1cc(C(C)(C)C)c(O)c(C(C)(C)C)c1)Sc1cc(C(C)(C)C)c(O)c(C(C)(C)C)c1 [probucol, 2,6-ditert-butyl-4-[2-(3,5-ditert-butyl-4-hydroxyphenyl)sulfanylpropan-2-ylsulfanyl]phenol]
intracellular reactive oxidative stress (ROS) [1]: decrease the level of ROS | BACE1 gene expression (qRT-PCR) [2]: decrease the level of beta secretase 1 (BACE1) | ChAT gene expression (qRT-PCR) [2]: increase the level of choline acetyltransferase (ChAT) | neuropilin gene expression (qRT-PCR) [2]: increased | synapsin 1 (Syn) gene expression (qRT-PCR) [2]: increased | TH gene expression (qRT-PCR) [3]: clearly upregulated | α-synuclein gene expression (qRT-PCR) [3]: decreased expression of α-synuclein | synapsin 1 protein expression (immunolocalization) [4]: clear reversal of degeneration | Acetylcholinesterase (AChE) activity [5]: inhibition of acetylcholinesterase (AChE) similar to rivastigmine | glutathione (GSH) activity [6]: increase in the anti-oxidant GSH activity | nitric oxide level [7]: prevent the reduction of endogenous nitric oxide levels | Nurr1 (immunolocalization) [8]: more pronounced | TH (immunolocalization) [8]: more pronounced | synapsin protein expression (immunolocalization) [8]: clear restoration of synapsin expression | glutathione (GSH) activity [9]: increase in the GSH activity | mitochondrial membrane potential (TMRE) [10]: maintain the mitochondrial membrane potential | nitric oxide level [11]: prevent the reduction of endogenous nitric oxide level | intracellular reactive oxidative stress (ROS) [12]: decrease the level of ROS

CC1(C)SC2(C=C(C(C)(C)C)C(=O)C(C(C)(C)C)=C2)C2(C=C(C(C)(C)C)C(=O)C(C(C)(C)C)=C2)S1 [SPQ, 2,4,9,11-tetrakis(1,1-dimethylethyl)-14,14-dimethyl-13,15-dithiadispiro[5.0.5.3]pentadeca-1,4,8,11-tetraene-3,10-dione]
intracellular reactive oxidative stress (ROS) [1]: decrease the level of ROS | BACE1 gene expression (qRT-PCR) [2]: decrease the level of beta secretase 1 (BACE1) | ChAT gene expression (qRT-PCR) [2]: increase the level of choline acetyltransferase (ChAT) | neuropilin gene expression (qRT-PCR) [2]: increased | synapsin 1 (Syn) gene expression (qRT-PCR) [2]: increased | DAT gene expression (qRT-PCR) [3]: significantly increased | Synapsin I gene expression (qRT-PCR) [3]: significantly increased | TH gene expression (qRT-PCR) [3]: significantly increased | α-synuclein gene expression (qRT-PCR) [3]: decreased expression of α-synuclein | synapsin 1 protein expression (immunolocalization) [4]: clear reversal of degeneration | Acetylcholinesterase (AChE) activity [5]: inhibition of acetylcholinesterase (AChE) similar to rivastigmine | glutathione (GSH) activity [6]: increase in the anti-oxidant GSH activity | nitric oxide level [7]: prevent the reduction of endogenous nitric oxide levels | Nurr1 (immunolocalization) [8]: more pronounced | TH (immunolocalization) [8]: more pronounced | synapsin protein expression (immunolocalization) [8]: clear restoration of synapsin expression | glutathione (GSH) activity [9]: increase in the GSH activity | mitochondrial membrane potential (TMRE) [10]: maintain the mitochondrial membrane potential | nitric oxide level [11]: prevent the reduction of endogenous nitric oxide level | intracellular reactive oxidative stress (ROS) [12]: decrease the level of ROS

CC(=O)O[C@@H]1CC[C@@]2(C)[C@H](CC[C@@H]3[C@@H]2CC[C@]2(C)[C@@H]([C@H](C)CCC(=O)Oc4c(C(C)(C)C)cc(SC(C)(C)Sc5cc(C(C)(C)C)c(O)c(C(C)(C)C)c5)cc4C(C)(C)C)CC[C@@H]32)C1 [HA-1, 2,6-di-tert-butyl-4-((2-((3,5-di-tert-butyl-4-hydroxyphenyl)thio)propan-2-yl)thio)phenyl (4R)-4-[(3R,5R,8R,9S,10S,13R,14S,17R)-3-acetoxy-10,13-dimethyl-2,3,4,5,6,7,8,9,11,12,14,15,16,17-tetradecahydro-1H-cyclopenta[a]phenanthren-17-yl]pentanoate]
intracellular reactive oxidative stress (ROS) [1]: decrease the level of ROS | BACE1 gene expression (qRT-PCR) [2]: decrease the level of beta secretase 1 (BACE1) | ChAT gene expression (qRT-PCR) [2]: increase the level of choline acetyltransferase (ChAT) | neuropilin gene expression (qRT-PCR) [2]: increased | synapsin 1 (Syn) gene expression (qRT-PCR) [2]: increased | DAT gene expression (qRT-PCR) [3]: increase the expression of all the dopaminergic markers tested | Nurr1 gene expression (qRT-PCR) [3]: increase the expression of all the dopaminergic markers tested | TH gene expression (qRT-PCR) [3]: increase the expression of all the dopaminergic markers tested | α-synuclein gene expression (qRT-PCR) [3]: decreased expression of α-synuclein | accumulation of BACE1 protein (immunolocalization) [4]: least expression | synapsin 1 protein expression (immunolocalization) [4]: clear reversal of degeneration | Acetylcholinesterase (AChE) activity [5]: inhibition of acetylcholinesterase (AChE) similar to rivastigmine | glutathione (GSH) activity [6]: increase in the anti-oxidant GSH activity | nitric oxide level [7]: prevent the reduction of endogenous nitric oxide levels | Nurr1 (immunolocalization) [8]: more pronounced | TH (immunolocalization) [8]: more pronounced | accumulation of α-synuclein (immunolocalization) [8]: least expression | synapsin protein expression (immunolocalization) [8]: clear restoration of synapsin expression | glutathione (GSH) activity [9]: increase in the GSH activity | mitochondrial membrane potential (TMRE) [10]: maintain the mitochondrial membrane potential | nitric oxide level [11]: prevent the reduction of endogenous nitric oxide level | intracellular reactive oxidative stress (ROS) [12]: decrease the level of ROS
